Experimental data reported in patent US20240425491A1, “HETEROARYL COMPOUNDS USEFUL IN THE TREATMENT OF COGNITIVE DISORDERS” (University College Cardiff Consultants Limited, priority 2021, published 2024).

Legend:
[1] = molecular target: T1, human recombinant GABAAR containing α5β3γ2 subunits (benzodiazepine site) (Homo sapiens, UniProt P18507+P31644); test: In vitro radioligand binding assay (α5-GABAAR Ki); details: inhibition of [3H]Ro15-1788 binding, membranes of L(tk−) cells expressing human α5β3γ2; read-out: α5-GABAAR Ki
T1 construct: expressed in transfected cells; host or cells: mouse L(tk−) cells, dexamethasone-inducible vector pMSGneo
Outline: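 Displacement of 4 nM [^3H]flumazenil from the benzodiazepine site, read by filtration and scintillation, gave IC50, converted to Ki (Cheng-Prusoff, saturation-derived Kd). Receptor: human α5β3γ2 membranes from L(tk^−) cells, 50 μg protein/well; 1 h, 4° C; TP003 1 μM defined nonspecific binding.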

[2] = molecular target: T2, human α5β3γ2 GABAARs in mouse L(tk−) cells (Homo sapiens, UniProt P18507+P31644); test: In vitro electrophysiological recording assay (α5-GABAAR relative efficacy), QPatch; format: cell-based; details: GABA EC10-20
T2 construct: expressed in transfected cells; host or cells: mouse L(tk−) cells, dexamethasone-inducible vector pMSGneo
From the text: Mouse L(tk^−) cells stably expressing human α1β3γ2, α2β3γ2, α3β3γ2, α5β3γ2 GABAARs generated by transfection of the individual subunits in the dexamethasone-inducible expression vector pMSGneo in mouse L(tk^−) cells (Hadingham et al., 1993, Mol. Pharmacol. 43:970-975 and 1993, Mol. Pharmacol. 44:1211-1218) were used for binding and functional assays. For certain compounds, HEK293 cells stable expressing the human α1β3γ2L, α2β3γ2L, α3β3γ2L and α5β3γ2L GABAA receptors were used to evaluate their functional effects in a SyncroPatch electrophysiology assay.
For QPatch electrophysiology testing, 1 μM dexamethasone was added to the culture medium of L(tk^−) cells 24 hours before the recordings were performed. Cells were typically used for electrophysiology experiments 72-96 hours after splitting.
The efficacy of modulators was evaluated using either the automated patch-clamp platform QPatch16 (Sophion, Copenhagen, Denmark) or the SyncroPatch 384i (Nanion Technologies, Germany). Cells were harvested from flasks by enzymatic dissociation and re-suspended in serum-free medium.
For QPatch recordings, all experiments were carried out at room temperature (20-22° C.) using a standard whole cell procedure and physiological solutions. Gigaseals were formed upon execution of a combined suction/voltage protocol with subsequent increased suction leading to the whole-cell configuration. The currents recorded were acquired at 1 KHz and filtered at 0.3 KHz using a Bessel filter. Whole-cell currents were measured at a holding potential of −65 mV.
For QPatch recordings, the extracellular solution contained of (in mM): 145 NaCl, 4 KCl, 1 MgCl2, 2CaCl2, 10 HEPES, 10 D-glucose (pH 7.4), and the intracellular solution consisted of (in mM): 96 KCl, 28 CsCl, 25 KOH, 4.3 CaCl2), 1.4 MgCl2, 10 EGTA, HEPES, 3 MgATP (pH 7.2). The osmolarities of the extracellular and intracellular solutions were 305 and 295 mOsm respectively.
The effects of modulators were evaluated in the presence of a submaximal GABA concentration, giving typically 10-20% activation (GABA EC10-20) of the response elicited by a saturating GABA concentration. For QPatch recordings, to check and ensure baseline current stability before compound addition, five consecutive applications of GABA EC10-20 alone (each application with a 2 s duration, separated by minimum 1 min wash off periods) were performed before compound addition. The test compound was applied using the pipetting system of the QPatch system 1 min at least prior to co-application with GABA EC10-20. For SyncroPatch recordings, GABA EC20 alone was applied three times (1 s long applications, with wash steps in-between) before compound addition. This was followed by a 1-2 min pre-incubation with the test compound and then re-application of GABA EC10-20 in the presence of the compound. Finally, following a further wash step, a saturating concentration of GABA was applied, allowing the accurate evaluation for each cell of the percentage baseline activation elicited by the submaximal GABA applied.
The compounds were first dissolved in DMSO as a 10 mM stock and then further diluted to the testing concentrations so that the final DMSO concentration in the extracellular recording solution was kept constant at 0.1% for the QPatch recordings, or 0.2% for the SyncroPatch recordings.
The % efficacy of modulators was determined from the GABA elicited currents recorded in the presence and absence of the test compound, using the formula:
[((compound peak current−leak)−(GABA peak current−leak))/(GABA peak current−leak)]*100,
where ‘leak’ is the leak baseline current at −65 mV, ‘compound peak current’ is the current elicited by co-application of compound and GABA, and ‘GABA peak current’ is the current elicited by GABA alone during the 5th GABA application. The results were presented as ‘relative efficacy’ for each compound generally at a concentration equal or higher than 100 times their determined Ki. […]

T2 sequence (P31644 32-462): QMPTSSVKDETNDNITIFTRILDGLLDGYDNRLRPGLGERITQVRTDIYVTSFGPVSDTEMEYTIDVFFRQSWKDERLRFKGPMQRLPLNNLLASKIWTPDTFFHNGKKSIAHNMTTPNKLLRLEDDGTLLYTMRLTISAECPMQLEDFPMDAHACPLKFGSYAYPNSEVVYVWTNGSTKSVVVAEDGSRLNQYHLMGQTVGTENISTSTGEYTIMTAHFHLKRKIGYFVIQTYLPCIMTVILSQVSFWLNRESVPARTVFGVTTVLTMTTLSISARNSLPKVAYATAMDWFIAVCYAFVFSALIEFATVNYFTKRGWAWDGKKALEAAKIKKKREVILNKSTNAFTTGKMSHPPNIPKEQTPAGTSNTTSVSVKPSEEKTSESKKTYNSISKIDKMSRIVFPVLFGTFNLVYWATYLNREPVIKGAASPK
T2 sequence (P28472 26-473 partner): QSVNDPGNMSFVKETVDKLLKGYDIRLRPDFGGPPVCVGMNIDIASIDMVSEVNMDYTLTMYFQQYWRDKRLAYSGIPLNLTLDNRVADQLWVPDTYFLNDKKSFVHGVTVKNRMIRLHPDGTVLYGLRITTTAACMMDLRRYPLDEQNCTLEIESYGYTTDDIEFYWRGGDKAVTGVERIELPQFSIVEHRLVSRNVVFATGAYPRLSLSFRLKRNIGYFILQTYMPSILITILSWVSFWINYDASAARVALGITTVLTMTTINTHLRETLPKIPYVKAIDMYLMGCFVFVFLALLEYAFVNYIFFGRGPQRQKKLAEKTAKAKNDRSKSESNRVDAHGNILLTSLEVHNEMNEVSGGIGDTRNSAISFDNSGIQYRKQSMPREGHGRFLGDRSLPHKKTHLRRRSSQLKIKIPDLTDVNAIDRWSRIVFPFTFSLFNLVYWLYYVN
T2 sequence (P18507 40-475): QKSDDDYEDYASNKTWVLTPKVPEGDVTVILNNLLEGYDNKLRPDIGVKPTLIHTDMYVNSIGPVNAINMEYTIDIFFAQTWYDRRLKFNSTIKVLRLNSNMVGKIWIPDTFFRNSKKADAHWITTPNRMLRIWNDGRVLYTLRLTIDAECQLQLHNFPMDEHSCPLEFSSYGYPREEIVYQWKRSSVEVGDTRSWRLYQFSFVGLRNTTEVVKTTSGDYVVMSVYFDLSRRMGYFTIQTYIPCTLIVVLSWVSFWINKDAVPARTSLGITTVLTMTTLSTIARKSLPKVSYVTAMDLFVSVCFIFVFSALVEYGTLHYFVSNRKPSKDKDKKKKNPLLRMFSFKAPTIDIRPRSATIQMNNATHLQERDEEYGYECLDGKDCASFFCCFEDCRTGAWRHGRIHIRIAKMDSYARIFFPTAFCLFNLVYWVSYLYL
T1 sequence (P31644 32-462): as the sequence (P31644 32-462) above
T1 sequence (P28472 26-473 partner): as the sequence (P28472 26-473 partner) above
T1 sequence (P18507 40-475): as the sequence (P18507 40-475) above

| Structure (SMILES) | Ki [1] | α5-GABAAR Relative Efficacy (to DMCM), Qpatch ([2]; Conc 0.3 μM) | α5-GABAAR Relative Efficacy (to DMCM), Qpatch ([2]; Conc 0.1 μM) | α5-GABAAR Relative Efficacy (to DMCM), Qpatch ([2]; Conc 3 μM) | α5-GABAAR Relative Efficacy (to DMCM), Qpatch ([2]; Conc 1 μM) |
| --- | --- | --- | --- | --- | --- |
| COc1nc(-c2ccn3nc(N)nc3c2)ccc1NC(=O)c1c(-c2ccccc2)noc1C.Cl [Example 61, N-[6-(2-Amino-[1,2,4]triazolo[1,5-a]pyridin-7-yl)-2-methoxy-3-pyridyl]-5-methyl-3-phenyl-isoxazole-4-carboxamide hydrochloride] | 1.4 nM | −0.85 |  |  |  |
| COc1nc(-n2cnnc2)ccc1NC(=O)c1c(-c2ccccc2)noc1C [Example 62, N-[2-Methoxy-6-(1,2,4-triazol-4-yl)-3-pyridyl]-5-methyl-3-phenyl-isoxazole-4-carboxamide] | 1.9 nM | −0.61 |  |  |  |
| COC(=O)c1ncc(-c2ccc(NC(=O)c3c(-c4ccccc4)noc3C)c(OC)n2)cn1 [Example 70, Methyl 5-[6-methoxy-5-[(5-methyl-3-phenyl-isoxazole-4-carbonyl)amino]-2-pyridyl]pyrimidine-2-carboxylate] | 0.7 nM |  | −0.89 |  |  |
| COc1ccc(-c2cnc(NC(=O)c3c(-c4ccccc4)noc3C)c(OC)n2)cn1 [Example 71, N-[3-Methoxy-5-(6-methoxy-3-pyridyl)pyrazin-2-yl]-5-methyl-3-phenyl-isoxazole-4-carboxamide] | 2.8 nM | −0.94 |  |  |  |
| COc1ncc(-c2cnc(NC(=O)c3c(-c4ccccc4)noc3C)c(OC)n2)cn1 [Example 72, N-[3-Methoxy-5-(2-methoxypyrimidin-5-yl)pyrazin-2-yl]-5-methyl-3-phenyl-isoxazole-4-carboxamide] | 2 nM | −1.04 |  |  |  |
| CNC(=O)c1ncc(-c2ccc(NC(=O)c3c(-c4ccccc4)noc3C)c(OC)n2)cn1 [Example 75, N-[2-Methoxy-6-[2-(methylcarbamoyl)pyrimidin-5-yl]-3-pyridyl]-5-methyl-3-phenyl-isoxazole-4-carboxamide] | 0.6 nM |  | −0.92 |  |  |
| COc1nc(-c2ccc3[nH]c(=O)n(C)c3c2)ccc1NC(=O)c1c(-c2ccccc2)noc1C [Example 77, N-(2-Methoxy-6-(3-methyl-2-oxo-2,3-dihydro-1H-benzo[d]imidazol-5-yl)pyridin-3-yl)-5-methyl-3-phenylisoxazole-4-carboxamide] | 16.1 nM |  |  | −0.22 |  |
| COc1nc(-c2cnccc2N)ccc1NC(=O)c1c(-c2ccccc2)noc1C [Example 78, N-(4′-Amino-6-methoxy-[2,3′-bipyridin]-5-yl)-5-methyl-3-phenylisoxazole-4-carboxamide] | 1 nM |  | −0.42 |  |  |
| COc1nc(-c2cnc3n2CCOC3)ccc1NC(=O)c1c(-c2ccccc2)noc1C [Example 79, N-[6-(6,8-Dihydro-5H-imidazo[2,1-c][1,4]oxazin-3-yl)-2-methoxy-3-pyridyl]-5-methyl-3-phenyl-isoxazole-4-carboxamide] | 0.8 nM |  | −0.76 |  |  |
| CCn1nc(-c2nccs2)cc1-c1ccc(NC(=O)c2c(-c3ccccc3)noc2C)c(OC)n1 [Example 80, N-(6-(1-Ethyl-3-(thiazol-2-yl)-1H-pyrazol-5-yl)-2-methoxypyridin-3-yl)-5-methyl-3-phenylisoxazole-4-carboxamide] | 19.5 nM |  |  | −0.65 |  |
| COc1nc(-c2cc(C)nc(N)c2)ccc1NC(=O)c1c(-c2ccccc2)noc1C [Example 81, N-(2′-Amino-6-methoxy-6′-methyl-[2,4′-bipyridin]-5-yl)-5-methyl-3-phenylisoxazole-4-carboxamide] | 8 nM |  |  |  | −1.26 |
| COc1nc(-c2ccnc(N(C)C)c2)ccc1NC(=O)c1c(-c2ccccc2)noc1C [Example 82, N-(2′-(Dimethylamino)-6-methoxy-[2,4′-bipyridin]-5-yl)-5-methyl-3-phenyl-isoxazole-4-carboxamide] | 7.9 nM |  |  |  | −0.65 |
| COc1nc(-c2cnn(C3CCCCO3)n2)ccc1NC(=O)c1c(-c2ccccc2)noc1C (stereo not drawn) [Example 84, N-(2-Methoxy-6-(2-(tetrahydro-2H-pyran-2-yl)-2H-1,2,3-triazol-4-yl)pyridin-3-yl)-5-methyl-3-phenylisoxazole-4-carboxamide] | 10.7 nM |  |  | −0.51 |  |
| COc1nc(-c2ccncc2N)ccc1NC(=O)c1c(-c2ccccc2)noc1C [Example 86, N-(3′-Amino-6-methoxy-[2,4′-bipyridin]-5-yl)-5-methyl-3-phenylisoxazole-4-carboxamide] | 3.2 nM |  |  |  | −0.65 |
| COc1nc(-c2cncc(-n3cccn3)c2)ccc1NC(=O)c1c(-c2ccccc2)noc1C [Example 90, N-(6-Methoxy-5′-(1H-pyrazol-1-yl)-[2,3′-bipyridin]-5-yl)-5-methyl-3-phenylisoxazole-4-carboxamide] | 3.4 nM |  |  |  | −0.58 |
| COc1nc(-c2ccc3nnn(C)c3c2)ccc1NC(=O)c1c(-c2ccccc2)noc1C [Example 91, N-(2-Methoxy-6-(1-methyl-1H-benzo[d] [1,2,3]triazol-6-yl)pyridin-3-yl)-5-methyl-3-phenylisoxazole-4-carboxamide] | 10.1 nM |  |  | −0.45 |  |
| COc1nc(-c2cnc(N3CCCC(CO)C3)nc2)ccc1NC(=O)c1c(-c2ccccc2)noc1C (stereo not drawn) [Example 92, N-(6-(2-(3-(Hydroxymethyl)piperidin-1-yl)pyrimidin-5-yl)-2-methoxypyridin-3-yl)-5-methyl-3-phenylisoxazole-4-carboxamide] | 3 nM | −0.66 |  |  |  |
| COc1nc(-c2cncnc2OC)ccc1NC(=O)c1c(-c2ccccc2)noc1C [Example 93, N-(2-Methoxy-6-(4-methoxypyrimidin-5-yl)pyridin-3-yl)-5-methyl-3-phenyl-isoxazole-4-carboxamide] | 8.2 nM |  |  |  | −0.73 |
| COc1nc(-c2cncs2)ccc1NC(=O)c1c(-c2ccccc2)noc1C [Example 94, N-(2-Methoxy-6-(thiazol-5-yl)pyridin-3-yl)-5-methyl-3-phenylisoxazole-4-carboxamide] | 21.7 nM |  |  | −0.50 |  |
| COc1nc(-c2cncc(C(=O)N(C)C)c2)ccc1NC(=O)c1c(-c2ccccc2)noc1C [Example 95, N-(5′-(Dimethylcarbamoyl)-6-methoxy-[2,3′-bipyridin]-5-yl)-5-methyl-3-phenyl-isoxazole-4-carboxamide] | 1.4 nM | −0.66 |  |  |  |
| COc1nc(-c2ccc3nncn3c2)ccc1NC(=O)c1c(-c2ccccc2)noc1C [Example 96, N-(6-([1,2,4] Triazolo[4,3-a]pyridin-6-yl)-2-methoxypyridin-3-yl)-5-methyl-3-phenylisoxazole-4-carboxamide] | 1.9 nM | −0.52 |  |  |  |
